Measured values published in the NIST ThermoML archive (doi:10.1021/je4004965).
Numbers after ± are expanded uncertainties.

Legend:
[1] = molar heat capacity at constant pressure; conditions: 101.33 kPa, Liquid, Small sample (50 mg) DSC
[2] = 101.33 kPa, Liquid; for speed of sound: Pulse-echo method; for mass density: Vibrating tube method

Row | SMILES | molar heat capacity at constant pressure ([1]; 293.15 K) [J/K/mol] | molar heat capacity at constant pressure ([1]; 298.15 K) [J/K/mol] | molar heat capacity at constant pressure ([1]; 303.15 K) [J/K/mol] | molar heat capacity at constant pressure ([1]; 308.15 K) [J/K/mol] | speed of sound ([2]; 293.15 K) [m/s] | mass density ([2]; 293.15 K) [kg/m3] | speed of sound ([2]; 298.15 K) [m/s] | mass density ([2]; 298.15 K) [kg/m3] | speed of sound ([2]; 303.15 K) [m/s] | mass density ([2]; 303.15 K) [kg/m3] | speed of sound ([2]; 308.15 K) [m/s] | mass density ([2]; 308.15 K) [kg/m3]
1 | Cc1ccccc1N [2-methylaniline] | 215.96 ± 3.4 | 217.16 ± 3.4 | 218.43 ± 3.4 | 219.52 ± 3.4 | 1622.2 ± 1.3 | 998.431 ± 1 | 1602.3 ± 1.3 | 994.358 ± 1 | 1577.7 ± 1.3 | 990.23 ± 1 | 1558.2 ± 1.3 | 986.064 ± 1
2 | c1ccncc1 [pyridine] | 130.49 ± 2 | 131.74 ± 2 | 132.71 ± 2.1 | 133.82 ± 2.1 | 1442 ± 1.2 | 983.191 ± 1 | 1417.8 ± 1.2 | 978.249 ± 1 | 1398 ± 1.2 | 973.224 ± 1 | 1377.1 ± 1.2 | 968.166 ± 1

Continued, values first:

Row | molar heat capacity at constant pressure ([1]; 293.15 K) [J/K/mol] | molar heat capacity at constant pressure ([1]; 298.15 K) [J/K/mol] | molar heat capacity at constant pressure ([1]; 303.15 K) [J/K/mol] | molar heat capacity at constant pressure ([1]; 308.15 K) [J/K/mol] | speed of sound ([2]; 293.15 K) [m/s] | mass density ([2]; 293.15 K) [kg/m3] | speed of sound ([2]; 298.15 K) [m/s] | mass density ([2]; 298.15 K) [kg/m3] | speed of sound ([2]; 303.15 K) [m/s] | mass density ([2]; 303.15 K) [kg/m3] | speed of sound ([2]; 308.15 K) [m/s] | mass density ([2]; 308.15 K) [kg/m3] | SMILES
3 | 155.88 ± 2.4 | 158.52 ± 2.5 | 160.84 ± 2.5 | 160.83 ± 2.5 | 1451.1 ± 1.2 | 955.099 ± 1 | 1431.5 ± 1.2 | 950.179 ± 1 | 1410.7 ± 1.2 | 945.413 ± 1 | 1389.9 ± 1.2 | 940.821 ± 1 | Cc1ccncc1 [4-methylpyridine]
4 | 156.05 ± 2.4 | 158.75 ± 2.5 | 160.83 ± 2.5 | 160.96 ± 2.5 | 1445.9 ± 1.2 | 956.581 ± 1 | 1424 ± 1.2 | 952.002 ± 1 | 1404.1 ± 1.2 | 947.449 ± 1 | 1384 ± 1.2 | 942.831 ± 1 | Cc1cccnc1 [3-methylpyridine]
5 | 157.07 ± 2.4 | 158.86 ± 2.5 | 160.14 ± 2.5 | 160.66 ± 2.5 | 1400.5 ± 2.1 | 944.401 ± 1.2 | 1380.1 ± 2.1 | 939.802 ± 1.2 | 1361 ± 2.1 | 935.117 ± 1.2 | 1339.9 ± 2.1 | 930.414 ± 1.2 | Cc1ccccn1 [2-methylpyridine]
6 | 303.73 ± 4.7 | 305.35 ± 4.7 | 306.16 ± 4.7 | 308.94 ± 4.8 | 1631.1 ± 2.2 | 1283.89 ± 1.7 | 1619.4 ± 2.1 | 1279.91 ± 1.7 | 1607.6 ± 2.1 | 1276.26 ± 1.7 | 1596.3 ± 2.1 | 1272.07 ± 1.7 | CCn1cc[n+](C)c1.F[B-](F)(F)F [1-ethyl-3-methylimidazolium tetrafluoroborate]
